Results as given in ChEMBL document CHEMBL3217708, “2-Anilinonicotinyl linked 1,3,4-oxadiazole derivatives: Synthesis, antitumour activity and inhibition of tubulin polymerization” (2011).

Columns and labels:
Tubulin (Bos taurus) = Tubulin (Bos taurus) (UniProt Q6B856+Q862L2+Q862F3); assay: Inhibition of bovine brain tubulin polymerization at 3 uM measured for 1 hr by fluorimetric assay
HepG2 = assay: Growth inhibition of human HepG2 cells after 48 hrs by sulforhodamine B assay; format: functional; conditions: HepG2, 48 h
DU-145 = assay: Growth inhibition of human DU145 cells after 48 hrs by sulforhodamine B assay; format: functional; conditions: DU-145, 48 h
MDA-MB-231 = assay: Growth inhibition of human MDA-MB-231 cells after 48 hrs by sulforhodamine B assay; format: functional; conditions: MDA-MB-231, 48 h
A549 [1] = assay: Cell cycle arrest in human A549 cells assessed as accumulation at S phase at 1 uM after 48 hrs by propidium iodide staining based flow cytometry (reference value: 10%); format: functional
A549 [2] = assay: Cell cycle arrest in human A549 cells assessed as accumulation at G2/M phase at 1 uM after 48 hrs by propidium iodide staining based flow cytometry (reference value: 10%); format: functional
A549 [3] = assay: Cell cycle arrest in human A549 cells assessed as accumulation at G1 phase at 1 uM after 48 hrs by propidium iodide staining based flow cytometry (reference value: 78%); format: functional
A549 [4] = assay: Growth inhibition of human A549 cells after 48 hrs by sulforhodamine B assay; format: functional; conditions: A549, 48 h
A549 [5] = assay: Induction of apoptosis in human A549 cells assessed as caspase-9 activation at 1 uM after 24 hrs by fluorimetry relative to control; format: functional
A549 [6] = assay: Inhibition of alpha-tubulin polymerization in human A549 cells assessed as ratio of soluble to polymerized tubulin at 1 uM after 24 hrs by western blot analysis; format: functional
A549 [7] = assay: Induction of apoptosis in human A549 cells assessed as caspase-3 activation at 1 uM after 24 hrs by fluorimetry relative to control; format: functional
HeLa = assay: Growth inhibition of human HeLa cells after 48 hrs by sulforhodamine B assay; format: functional

inhibition (Tubulin (Bos taurus))	GI50 (HepG2)	GI50 (DU-145)	GI50 (MDA-MB-231)	GI50 (A549 [4])	GI50 (HeLa)	Structure (SMILES)	Activity (A549 [1])	Activity (A549 [2])	Activity (A549 [3])	fold change (FC) (A549 [5])	Ratio (A549 [6])	fold change (FC) (A549 [7])
38%						COc1cc(Nc2ncccc2-c2nnc(Nc3ccc(Cl)cc3)o2)cc(OC)c1OC						
41%						COc1cc(Nc2nnc(-c3cccnc3Nc3cc(OC)c(OC)c(OC)c3)o2)cc(OC)c1OC						
70%	760 nM	190 nM	150 nM	210 nM	750 nM	COC(=O)Nc1nc2cc(C(=O)c3cccs3)ccc2[nH]1 [NOCODAZOLE]	25%	18%	55%	4	6	4
